Assay results from US12208228B2, “Microneedle array comprising a heat-producing element” (LTS LOHMANN THERAPIE-SYSTEME AG, priority 2019, dated 2025).

Experiment: In vitro permeation studies in static vertical Franz cells, microneedle systems pressed into dermatomized minipig skin
Format: in vitro ADME, Göttingen Minipigs
Text: The back part of Gottinger Minipighaut (Ellegaard Göttingen Minipigs Agricultural Service, Dalmose, Denmark) was used as the skin. The skin, which is delivered as a so-called full skin without subcutaneous fatty tissue in a frozen state, must first be thawed at room temperature and carefully shaved with plenty of water without using any shaving foam to remove the bristles. The skin is then dermatomized or cut to a layer thickness of 800 μm with the aid of an Acculan 3TI battery-powered electric dermatome (Aesculap AG, Tuttlingen, Germany). Circular punched pieces having a diameter of 25 mm are then knocked out of the pieces of skin treated in this way with the help of a corresponding punching tool, for example, a handle punch and are stored shrink-wrapped in PE bags until further use at −20 degrees Celsius (maximum storage period under these conditions up to 12 months).
The permeation studies were performed in static and vertical Franz cells (Glastechnik Gräfenroda, Germany) with a diffusion area of 1.595 cm^2 and an acceptor volume of 10 ml. The acceptor medium used was phosphate buffer having a pH value of 7.4 according to DAB 10, tempered to 32° C. during the entire permeation time and constantly stirred for uniform mixing of the permeated active ingredient. The acceptor medium was completely replaced by fresh one at the scheduled sampling times. Before the pre-prepared skin punches are clamped in the Franz cells and filled with acceptor, the microneedle systems must first be pressed into the top layer of skin using a manufactured pressure adapter, in the sense of a nail gun with an impulse strength of 150 N/cm^2.
Before filling with the acceptor and inserting the Franz cells into the water bath controlled to a temperature of 32° C., the temperature-controlled cell heads are put on or they are prepared with an active heat pack mixture, see also the figures including explanations.
The analytical determination was carried out by means of HPLC on a C18-Inertsil separation column (250×4.6 mm, 5 μm particle size; VDS Optilab, Berlin) by means of UV detection at 282 nm and at 30 degrees Celsius. A mixture consisting of acetonitrile, methanol and 0.02167 m sodium dihydrogen phosphate solution 10:20:85 (v %/v %/v %) and a pH of 3.2 was used as the eluent. The flow rate was 1.0 ml/min and 20 μl were injected.
The analytical determination was carried out by means of HPLC on a C12-Synergi-Max-RP separation column (150×4.6 mm, 4 μm particle size; Phenomenex, Aschaffenburg) by means of UV detection at 273 nm and at 25 degrees Celsius. A mixture consisting of methanol and HPLC water 40:60 (v %/v %) was used as an eluent. The flow rate was 1.0 ml/min and 20 μl were injected.

Row | lag time (FIG. 2, inventive example with external heat generation (heatable thermostated-water cell head), period up to 6 hours) [min] | amount or rate of release of API, factor greater than that of the reference (FIG. 2, inventive example with heat (heatable cell head) vs reference without heat, up to 6 hours) | lag time (FIG. 2, reference system without additional heat generation, period up to 6 hours) [min] | lag time of reference larger than inventive example by a factor (FIG. 2, reference without heat vs inventive example with heat) | lag time (FIG. 3, inventive example with external heat generation (heatable thermostated-water cell head), period of 60 minutes) [min] | amount or rate of release of API, factor greater than that of the reference (FIG. 3, inventive example with heat (heatable cell head) vs reference without heat, 60 minutes) | lag time (FIG. 3, reference system without additional heat generation, period of 60 minutes) [min] | lag time of reference larger than inventive example by a factor (FIG. 3, reference without heat vs inventive example with heat) | amount or rate of release of API, factor greater than that of the reference (FIG. 4, inventive example with commercial heat pack vs reference without heat, up to 6 hours) | lag time (FIG. 4, inventive example with heat from commercial heat pack (Thermopad; pyrophoric iron, activated carbon, sodium chloride), period up to 6 hours) [min] | lag time (FIG. 4, reference system without additional heat generation, period up to 6 hours) [min] | lag time of reference larger than inventive example by a factor (FIG. 4, reference without heat vs inventive example with heat pack) | Structure (SMILES) | lag time (FIG. 5, inventive example with external heat generation (heatable thermostated-water cell head), period of 8 hours) [min] | amount or rate of release of API, factor greater than that of the reference (FIG. 5, inventive example with heat (heatable cell head) vs reference without heat, 8 hours) | lag time (FIG. 5, reference system without additional heat generation, period of 8 hours) [min] | lag time of reference larger than inventive example by a factor (FIG. 5, reference without heat vs inventive example with heat)
1 |  |  |  |  |  |  |  |  |  |  |  |  | Cn1c(=O)c2c(ncn2C)n(C)c1=O [caffeine, Caffeine] | 40 | ~2 | 100 | 2.5
2 | 20 | ~5 | 40 | 2 | 0.5 | ~4 | 1.0 | 2 | ~8 | 0.1 | 0.4 | 4 | CNS(=O)(=O)Cc1ccc2[nH]cc(CCN(C)C)c2c1 [sumatriptan succinate, Sumatriptan succinate] |  |  |  | 
